Here are results for 7 compounds from patent US20170247645A1, “ENCAPSULATED FRAGRANCE MIXTURES” (Symrise AG, priority 2014, published 2017).

A short description of data set [1]: Odor threshold value (OTV) in air. The text has this:
The odor threshold is the threshold at which a fragrance or odorant is olfactorily perceived by an organism. The odor threshold value, OTV for short, is that minimum concentration of a particular gaseous, sensorily active substance in the surrounding medium that this lifeform is just able to perceive through its sense of smell. In the present invention, preference is given to fragrances having a (very) low odor threshold value. The lower this is, the lower the concentration at which the fragrance is then perceived.

The nature of data set [2]: log Kow (octanol/water partition coefficient). It counts as physicochemical. The conditions noted are these: 1-octanol/water. The source says: In a further preferred embodiment, the individual fragrances of the fragrance mixture of the invention have a log Kow value of 1 to 10, preferably of 1.5 to 8, more preferably of 2 to 5.5.
The log Kow (octanol/water partition coefficient) is a measure of the lipophilicity of a substance. In terms of calculation, it is the partition coefficient Kow of a substance in a mixture of 1-octanol and water. Kow is greater than one when a substance has better solubility in fat-like solvents such as n-octanol, and less than one when it has better solubility in water. Correspondingly, log Kow is positive for lipophilic substances and negative for hydrophilic substances.

Regarding `C=CCOC(=O)COCCC(C)C` [Example 7, Allyl amyl glycolate], the OTV in data set [1] came out at 0.1 ppm.

On to `CCOC(=O)[C@H]1O[C@@]1(C)c1ccccc1` [Example 2, Aldehyde C16], for which, in data set [1], the OTV was 0.2 ppm. Moreover, the “log Kow” value in data set [2] is listed as 3.

Compound `CC(C)=CCC[C@@H](C)CC#N` [Example 3, citronellylnitrile] had an OTV in data set [1] of 1 ppm. The “log Kow” value in data set [2] was found to be 3.55.

Turning to `CC(C)=CCCC1=CC[C@](C)(C=O)CC1` [Example 6, Pre-cyclemone B], the OTV in data set [1] came to 0.5 ppm. In addition, in data set [2], the “log Kow” value turned out to be 5.19.

In data set [1], `COc1nccnc1CC(C)C` [Example 9, 2-Isobutyl-3-methoxypyrazine] gave an OTV of 0.1 ppm. Moreover, the “log Kow” value in data set [2] amounted to 2.86.

Compound `CC(C)=C[C@H]1C[C@@H](C)CCO1` [Example 1, Rose oxide] yielded an OTV in data set [1] of 0.5 ppm. Moreover, in data set [2], the “log Kow” value is listed as 3.58.

In data set [1], `CCCCC/C=C\CCC=O` [Example 10, cis-4-Decenal] had an OTV of 0.2 ppm. Further, the “log Kow” value in data set [2] worked out at 3.55.
